Assay results published in patent publication US8378104B2 (OSI Pharmaceuticals, LLC, priority 2010, dated 2013).
Counter-ions that a name gives are not always drawn.

Tests used:
TAK1-TAB1 fusion protein = biological target: T1, TAK1-TAB1 fusion protein (Homo sapiens, UniProt O43318); assay: TAK1 biochemical assay (AlphaScreen, GST-MAP2K7 substrate); details: TAK1-TAB1 fusion protein, GST-MAP2K7 substrate; read-out: mean TAK1 IC50 (Col. A)
T1 construct: purchased Carna
T1 sequence (O43318 with tags, fused parts or gaps limits assumed): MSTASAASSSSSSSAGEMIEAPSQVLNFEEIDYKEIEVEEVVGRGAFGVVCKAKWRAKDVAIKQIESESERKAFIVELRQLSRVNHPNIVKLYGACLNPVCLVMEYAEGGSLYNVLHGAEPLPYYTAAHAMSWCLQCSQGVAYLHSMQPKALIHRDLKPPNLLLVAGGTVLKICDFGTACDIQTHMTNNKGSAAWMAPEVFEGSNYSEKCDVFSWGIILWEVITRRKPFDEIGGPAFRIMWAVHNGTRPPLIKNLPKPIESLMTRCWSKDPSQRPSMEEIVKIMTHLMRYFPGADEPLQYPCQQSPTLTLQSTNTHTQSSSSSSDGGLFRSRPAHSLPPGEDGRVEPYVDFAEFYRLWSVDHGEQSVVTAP

pJNK in HCT-116 cells = assay: Phospho-JNK (Thr183/Tyr185) Meso Scale ELISA assay, TNFα-stimulated HCT-116 cells; format: cell-based; details: Homo sapiens, read-out: mean HCT-116 pJNK ELISA IC50 (Col. B)
How it was run: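 Meso Scale ELISA read of phospho-JNK (Thr183/Tyr185) in lysed HCT-116 cells. Cells were serum-reduced to 1% FCS for 2 hours, exposed to test drug for 4 hrs at 37° C, then given 10 ng/mL TNFα (final) for 10 minutes before lysis.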

p-p38 in HCT-116 cells = assay: Phospho-p38 Meso Scale ELISA assay, TNFα-stimulated HCT-116 cells; format: cell-based; details: Homo sapiens, read-out: mean HCT-116 p-p38 ELISA IC50 (Col. C)
How it was run: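 Phospho-p38 measured by Meso Scale ELISA on diluted lysates, captured overnight at 4° C. Before lysis, HCT-116 cells were serum-reduced (1% FCS, 2 h), treated with compounds 4 h at 37° C and stimulated 10 min with 10 ng/mL TNFα final.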

| SMILES | IC50 (TAK1-TAB1 fusion protein) | IC50 (pJNK in HCT-116 cells) | IC50 (p-p38 in HCT-116 cells) |
| --- | --- | --- | --- |
| Nc1ncc(-c2cnn([C@H]3CC[C@H](O)CC3)c2)c2cc(-c3c(F)ccc4cnsc34)oc12 [Example 240, trans-4-{4-[7-amino-2-(6-fluoro-1,2-benzothiazol-7-yl)furo[2,3-c]pyridin-4-yl]-1H-pyrazol-1-yl}cyclohexanol diformate salt] | 0.1 to 1 µM | < 0.1 µM | 0.1 to 1 µM |
| CC(=O)N1CCC(n2cc(-c3cnc(N)c4oc(-c5ccc6c(c5)CCO6)cc34)cn2)CC1 [Example 108, 1-(4-{4-[7-amino-2-(2,3-dihydro-1-benzofuran-5-yl)furo[2,3-c]pyridin-4-yl]-1H-pyrazol-1-yl}piperidin-1-yl)ethanone] | 0.1 to 1 µM | 0.1 to 1 µM | < 0.1 µM |
| Nc1ncc(-c2cnn(C3CCN(C(=O)C4CCC4)CC3)c2)c2cc(-c3cccc4cnccc34)oc12 [Example 53, (4-{4-[7-amino-2-(isoquinolin-5-yl)furo[2,3-c]pyridin-4-yl]-1H-pyrazol-1-yl}piperidin-1-yl)(cyclobutyl)methanone] | 0.1 to 1 µM | < 0.1 µM | 0.1 to 1 µM |
| Cc1nn(CC(O)CO)c(C)c1-c1cnc(N)c2oc(-c3cccc4cnccc34)cc12 (stereo not drawn) [Example 400, 3-{4-[7-amino-2-(isoquinolin-5-yl)furo[2,3-c]pyridin-4-yl]-3,5-dimethyl-1H-pyrazol-1-yl}propane-1,2-diol] | > 10 µM | 1 to 10 µM | 1 to 10 µM |
| COCCN1CCC(n2cc(-c3cnc(N)c4oc(-c5cccc6cnccc56)cc34)cn2)CC1 [Example 68, 2-(isoquinolin-5-yl)-4-{1-[1-(2-methoxyethyl)piperidin-4-yl]-1H-pyrazol-4-yl}furo[2,3-c]pyridin-7-amine] | 0.1 to 1 µM | 0.1 to 1 µM | 0.1 to 1 µM |
| Nc1ncc(-c2cnn(C3CCN(CCF)CC3)c2)c2cc(-c3cccc4cnccc34)oc12 [Example 83, 4-{1-[1-(2-fluoroethyl)piperidin-4-yl]-1H-pyrazol-4-yl}-2-(isoquinolin-5-yl)furo[2,3-c]pyridin-7-amine] | 0.1 to 1 µM | < 0.1 µM | 0.1 to 1 µM |
| CC(=O)N1CCC(n2cc(-c3cnc(N)c4oc(-c5cccc(S(C)(=O)=O)c5)cc34)cn2)CC1 [Example 101, 1-[4-(4-{7-amino-2-[3-(methylsulfonyl)phenyl]furo[2,3-c]pyridin-4-yl}-1H-pyrazol-1-yl)piperidin-1-yl]ethanone] | 1 to 10 µM | 1 to 10 µM | 1 to 10 µM |
| Nc1ncc(-c2cnn(C3CCNCC3)c2)c2cc(-c3ccc4[nH][nH]c(=O)c4c3)oc12 [Example 55, 5-{7-amino-4-[1-(piperidin-4-yl)-1H-pyrazol-4-yl]furo[2,3-c]pyridin-2-yl}-1,2-dihydro-3H-indazol-3-one trifluoroacetic acid salt] | < 0.1 µM | > 10 µM | > 10 µM |
| CC(C)C(=O)N1CCC(n2cc(-c3cnc(N)c4oc(-c5cccc6cnccc56)cc34)cn2)CC1 [Example 51, 1-(4-{4-[7-amino-2-(isoquinolin-5-yl)furo[2,3-c]pyridin-4-yl]-1H-pyrazol-1-yl}piperidin-1-yl)-2-methylpropan-1-one] | 0.1 to 1 µM | < 0.1 µM | < 0.1 µM |
| CC(=O)N1CCC(n2cc(-c3cnc(N)c4oc(-c5ccc6scnc6c5)cc34)cn2)CC1 [Example 107, 1-(4-{4-[7-amino-2-(1,3-benzothiazol-5-yl)furo[2,3-c]pyridin-4-yl]-1H-pyrazol-1-yl}piperidin-1-yl)ethanone] | 0.1 to 1 µM | 0.1 to 1 µM | 0.1 to 1 µM |
| CC(=O)N1CCC(n2cc(-c3cnc(N)c4oc(-c5cccc6cnccc56)cc34)cn2)CC1 [Example 81, 1-(4-{4-[7-amino-2-(isoquinolin-5-yl)furo[2,3-c]pyridin-4-yl]-1H-pyrazol-1-yl}piperidin-1-yl)ethanone] | 0.1 to 1 µM | 0.1 to 1 µM | 0.1 to 1 µM |
| COCC(=O)N1CCC(n2cc(-c3cnc(N)c4oc(-c5cccc6cnccc56)cc34)cn2)CC1 [Example 50, 1-(4-{4-[7-amino-2-(isoquinolin-5-yl)furo[2,3-c]pyridin-4-yl]-1H-pyrazol-1-yl}piperidin-1-yl)-2-methoxyethanone] | 0.1 to 1 µM | 0.1 to 1 µM | 0.1 to 1 µM |
| CSc1ccc(-c2cc3c(-c4cnn(C5CCN(C(C)=O)CC5)c4)cnc(N)c3o2)cc1 [Example 113, 1-[4-(4-{7-amino-2-[4-(methylsulfanyl)phenyl]furo[2,3-c]pyridin-4-yl}-1H-pyrazol-1-yl)piperidin-1-yl]ethanone] | > 10 µM | 1 to 10 µM | 1 to 10 µM |
| CC(=O)N1CCC(n2cc(-c3cnc(N)c4oc(-c5cnn(Cc6cccnc6)c5)cc34)cn2)CC1 [Example 148, 1-[4-(4-{7-amino-2-[1-(pyridin-3-ylmethyl)-1H-pyrazol-4-yl]furo[2,3-c]pyridin-4-yl}-1H-pyrazol-1-yl)piperidin-1-yl]ethanone] | 1 to 10 µM | > 10 µM | > 10 µM |
| Nc1ncc(-c2cnn([C@H]3CC[C@H](O)CC3)c2)c2cc(-c3cc(F)cc4cnsc34)oc12 [Example 238, trans-4-{4-[7-amino-2-(5-fluoro-1,2-benzothiazol-7-yl)furo[2,3-c]pyridin-4-yl]-1H-pyrazol-1-yl}cyclohexanol diformate salt] | 0.1 to 1 µM | < 0.1 µM | 0.1 to 1 µM |
| CC(=O)N1CCC(n2cc(-c3cnc(N)c4oc(-c5c(C)sc6cnccc56)cc34)cn2)CC1 [Example 253, 1-(4-{4-[7-amino-2-(2-methylthieno[2,3-c]pyridin-3-yl)furo[2,3-c]pyridin-4-yl]-1H-pyrazol-1-yl}piperidin-1-yl)ethanone trifluoroacetate] | < 0.1 µM | 0.1 to 1 µM | 1 to 10 µM |
| CC(=O)N1CCC(n2cc(-c3cnc(N)c4oc(-c5cccc6c5oc5ccccc56)cc34)cn2)CC1 [Example 93, 1-(4-{4-[7-amino-2-(dibenzo[b,d]furan-4-yl)furo[2,3-c]pyridin-4-yl]-1H-pyrazol-1-yl}piperidin-1-yl)ethanone] | > 10 µM | 1 to 10 µM | 1 to 10 µM |
| Nc1ncc(-c2cnn(C3CC4(C3)OCCO4)c2)c2cc(-c3csc4cnccc34)oc12 [Example 291, 4-[1-(5,8-dioxa-spiro[3.4]oct-2-yl)-1H-pyrazol-4-yl]-2-thieno[2,3-c]pyridin-3-yl-furo[2,3-c]pyridin-7-ylamine] | < 0.1 µM | 0.1 to 1 µM | 0.1 to 1 µM |
| CNc1ncc(-c2cnn(C3CCN(C(C)=O)CC3)c2)c2cc(-c3c[nH]c4cnccc34)oc12 [Example 280, 1-(4-{4-[7-(methylamino)-2-(1H-pyrrolo[2,3-c]pyridin-3-yl)furo[2,3-c]pyridin-4-yl]-1H-pyrazol-1-yl}piperidin-1-yl)ethanone trifluoroacetic acid salt] | < 0.1 µM | 1 to 10 µM | 0.1 to 1 µM |
| CC(=O)N1CCC(n2cc(-c3cnc(N)c4oc(-c5c[nH]c6cc(C#N)ccc56)cc34)cn2)CC1 [Example 222, 3-{4-[1-(1-acetylpiperidin-4-yl)-1H-pyrazol-4-yl]-7-aminofuro[2,3-c]pyridin-2-yl}-1H-indole-6-carbonitrile] | 0.1 to 1 µM | 0.1 to 1 µM | 0.1 to 1 µM |
| Nc1ncc(-c2cnn(C3CCNCC3)c2)c2cc(-c3cccc4cnccc34)oc12 [Example 33, 2-(isoquinolin-5-yl)-4-[1-(piperidin-4-yl)-1H-pyrazol-4-yl]furo[2,3-c]pyridine-7-amine] | 0.1 to 1 µM | 0.1 to 1 µM | 0.1 to 1 µM |
| CC(=O)N1CCC(n2cc(-c3cnc(N)c4oc(-c5cn[nH]c5)cc34)cn2)CC1 [Example 115, 1-(4-{4-[7-amino-2-(1H-pyrazol-4-yl)furo[2,3-c]pyridin-4-yl]-1H-pyrazol-1-yl}piperidin-1-yl)ethanone] | 0.1 to 1 µM | 1 to 10 µM | > 10 µM |
| CC(C)n1cc(-c2cnc(N)c3oc(-c4cccc5cnccc45)cc23)cn1 [Example 60, 2-(isoquinolin-5-yl)-4-[1-(propan-2-yl)-1H-pyrazol-4-yl]furo[2,3-c]pyridin-7-amine] | 0.1 to 1 µM | 0.1 to 1 µM | 0.1 to 1 µM |
| CC(=O)N1CCC(n2cc(-c3cnc(N)c4oc(C5=CCCCC5)cc34)cn2)CC1 [Example 142, 1-(4-{4-[7-amino-2-(cyclohex-1-en-1-yl)furo[2,3-c]pyridin-4-yl]-1H-pyrazol-1-yl}piperidin-1-yl)ethanone] | 0.1 to 1 µM | 0.1 to 1 µM | 1 to 10 µM |
| Nc1ncc(-c2cnn(C3CCNCC3)c2)c2cc(-c3cccc4cnsc34)oc12 [Example 323, 2-benzo[d]isothiazol-7-yl-4-(1-piperidin-4-yl-1H-pyrazol-4-yl)-furo[2,3-c]pyridin-7-ylamine] | < 0.1 µM | 1 to 10 µM | 0.1 to 1 µM |
